Reference: the Kinase Knowledgebase extract (Sharma et al. 2016)

Each molecule was assayed against CDK2 (UniProt P24941) (assay: Enzyme Assay). Conditions: not given.

SMILES | IC50 [nM] | Ki [nM]
N[C@H](COc1cncc(-c2cc3cn[nH]c3cn2)c1)Cc1c[nH]c2ccccc12 | 6 | –
N[C@H](COc1cncc(-c2ccc3[nH]ncc3c2)c1)Cc1c[nH]c2ccccc12 | 63 | 42

What follows are molecules tested against MAPK14 (UniProt Q16539) (assay: Enzyme Assay). Conditions: not given.
MAPK14, sequence (Q16539 whole entry, looked up): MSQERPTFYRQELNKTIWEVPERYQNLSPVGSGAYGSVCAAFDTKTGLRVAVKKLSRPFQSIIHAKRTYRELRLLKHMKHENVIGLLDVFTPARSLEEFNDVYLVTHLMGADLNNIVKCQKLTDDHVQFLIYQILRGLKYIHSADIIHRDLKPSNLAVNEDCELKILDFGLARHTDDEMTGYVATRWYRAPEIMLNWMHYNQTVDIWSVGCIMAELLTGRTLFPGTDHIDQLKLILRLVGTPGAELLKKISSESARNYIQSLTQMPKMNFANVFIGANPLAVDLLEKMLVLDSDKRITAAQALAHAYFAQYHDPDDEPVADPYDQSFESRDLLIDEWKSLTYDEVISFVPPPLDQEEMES

SMILES | IC50 [nM] | Ki [nM] | Kd [nM]
Cc1cccc(C(=O)c2ccc(Nc3ccc(N)cc3)cc2Cl)c1 | 190 | – | –
Fc1ccc(-c2ncn(CCCN3CCOCC3)c2-c2ccccn2)cc1 | 64600 | – | –
Nc1ccccc1Nc1ccc2c(c1)OCc1ccccc1C2=O | 303 | – | –
CC(C)S(=O)(=O)n1c(N)nc2ccc(-c3[nH]c(-c4c(F)cccc4F)nc3-c3ccccc3)cc21 | – | 5 | –
Cc1ccc(-n2nc(C(C)(C)C)cc2NC(=O)Nc2cc(C)c(OCCN3CCOCC3)c3ccccc23)cc1 | – | – | 14

What follows are molecules tested against PIK3CA (human) (UniProt P42336) (assay: Enzyme Assay). Conditions: not given.
PIK3CA (human), sequence (P42336 whole entry, looked up): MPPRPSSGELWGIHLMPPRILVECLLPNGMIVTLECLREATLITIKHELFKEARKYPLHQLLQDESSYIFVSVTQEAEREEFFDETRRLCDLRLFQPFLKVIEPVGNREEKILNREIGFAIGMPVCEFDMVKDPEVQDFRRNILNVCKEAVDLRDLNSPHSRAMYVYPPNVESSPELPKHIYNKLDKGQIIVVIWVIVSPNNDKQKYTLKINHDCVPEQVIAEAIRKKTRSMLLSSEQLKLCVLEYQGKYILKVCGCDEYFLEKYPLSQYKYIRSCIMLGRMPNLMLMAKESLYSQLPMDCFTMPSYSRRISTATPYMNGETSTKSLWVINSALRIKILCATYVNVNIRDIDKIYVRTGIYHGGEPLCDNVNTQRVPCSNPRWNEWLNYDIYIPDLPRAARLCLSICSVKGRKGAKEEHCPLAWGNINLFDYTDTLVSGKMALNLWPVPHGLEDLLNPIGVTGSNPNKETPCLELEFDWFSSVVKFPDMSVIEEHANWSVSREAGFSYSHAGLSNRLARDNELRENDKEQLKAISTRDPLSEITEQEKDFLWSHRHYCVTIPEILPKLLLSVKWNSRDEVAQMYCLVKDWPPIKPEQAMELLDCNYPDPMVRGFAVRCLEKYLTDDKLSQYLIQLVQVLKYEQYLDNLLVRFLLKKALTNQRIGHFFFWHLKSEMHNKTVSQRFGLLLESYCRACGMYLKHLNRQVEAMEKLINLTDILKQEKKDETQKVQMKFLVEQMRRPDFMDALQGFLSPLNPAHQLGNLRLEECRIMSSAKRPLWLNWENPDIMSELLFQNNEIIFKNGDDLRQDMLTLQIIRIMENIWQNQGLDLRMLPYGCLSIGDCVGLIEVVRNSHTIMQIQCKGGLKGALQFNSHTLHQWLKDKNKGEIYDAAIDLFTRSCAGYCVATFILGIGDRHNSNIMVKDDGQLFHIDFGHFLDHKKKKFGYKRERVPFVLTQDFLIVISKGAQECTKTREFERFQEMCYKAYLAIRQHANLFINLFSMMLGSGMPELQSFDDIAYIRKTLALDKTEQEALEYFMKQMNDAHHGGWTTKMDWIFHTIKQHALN

SMILES | IC50 [nM]
CCN1CCN(c2cccc3c2CCN3C(=O)Cc2nc(N3CCOCC3)cc(=O)[nH]2)CC1 | 660
O=C(c1nn([C@@H]2CCCN(CCN3CCOCC3)C2)c2c1CS(=O)(=O)c1c(F)cccc1-2)N1CCOCC1 | 7650
O=c1cc(NCc2ccccc2)nc(N2CCOCC2)[nH]1 | 142000
C[C@@H](Oc1ccccc1)c1cc(C(=O)N(C)CCO)cn2c(=O)cc(N3CCOCC3)nc12 | 3500

The molecules below were run against PIK3CB (Human) (UniProt P42338) (assay: Enzyme Assay). Conditions: not given.

SMILES | IC50 [nM]
CC[C@H](Nc1ncnc(N)c1-c1nnc(C)o1)c1cc2cccc(Cl)c2c(=O)n1-c1ccccc1 | 359
CCN1CCN(c2cccc3c2CCN3C(=O)Cc2nc(N3CCOCC3)cc(=O)[nH]2)CC1 | 332
O=C(c1nn([C@@H]2CCCN(CCN3CCOCC3)C2)c2c1CS(=O)(=O)c1c(F)cccc1-2)N1CCOCC1 | 2450
C[C@H](Nc1ncnc2ccc(Cl)nc12)c1nc2c(F)ccc(Cl)c2c(=O)n1N1CCNCC1 | 8
O=c1cc(NCc2ccccc2)nc(N2CCOCC2)[nH]1 | 34000
C[C@@H](Oc1ccccc1)c1cc(C(=O)N(C)CCO)cn2c(=O)cc(N3CCOCC3)nc12 | 100

Each molecule was assayed against PIK3CD (Human) (UniProt O00329) (assay: Enzyme Assay). Conditions: not given.
PIK3CD (Human), sequence (O00329 whole entry, looked up): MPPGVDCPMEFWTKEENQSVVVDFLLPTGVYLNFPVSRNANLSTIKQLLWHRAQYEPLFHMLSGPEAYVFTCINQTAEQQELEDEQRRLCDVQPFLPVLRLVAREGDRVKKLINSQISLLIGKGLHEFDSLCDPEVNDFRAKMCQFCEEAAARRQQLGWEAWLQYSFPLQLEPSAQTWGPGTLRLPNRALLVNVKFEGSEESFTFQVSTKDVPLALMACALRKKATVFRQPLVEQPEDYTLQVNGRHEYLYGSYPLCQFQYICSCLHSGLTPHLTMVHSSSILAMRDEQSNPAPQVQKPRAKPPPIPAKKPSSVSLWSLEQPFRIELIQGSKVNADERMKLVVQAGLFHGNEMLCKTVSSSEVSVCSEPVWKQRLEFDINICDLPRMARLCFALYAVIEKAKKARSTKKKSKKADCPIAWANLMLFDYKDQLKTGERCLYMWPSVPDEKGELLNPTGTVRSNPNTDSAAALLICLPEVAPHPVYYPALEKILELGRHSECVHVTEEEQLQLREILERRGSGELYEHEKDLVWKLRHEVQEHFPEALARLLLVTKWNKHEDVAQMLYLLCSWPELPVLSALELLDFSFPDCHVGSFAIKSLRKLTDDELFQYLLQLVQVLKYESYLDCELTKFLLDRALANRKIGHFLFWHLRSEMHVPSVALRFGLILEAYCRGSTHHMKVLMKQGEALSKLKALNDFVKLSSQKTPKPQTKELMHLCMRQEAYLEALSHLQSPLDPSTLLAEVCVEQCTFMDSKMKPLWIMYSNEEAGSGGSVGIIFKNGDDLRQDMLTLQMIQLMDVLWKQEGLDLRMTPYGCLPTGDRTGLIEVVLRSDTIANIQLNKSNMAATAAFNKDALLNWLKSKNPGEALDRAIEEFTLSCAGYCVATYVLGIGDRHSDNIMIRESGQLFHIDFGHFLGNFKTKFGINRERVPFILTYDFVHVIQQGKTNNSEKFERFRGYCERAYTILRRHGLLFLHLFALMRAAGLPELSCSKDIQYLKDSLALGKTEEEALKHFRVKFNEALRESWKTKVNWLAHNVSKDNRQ

SMILES | IC50 [nM]
CCN1CCN(c2cccc3c2CCN3C(=O)Cc2nc(N3CCOCC3)cc(=O)[nH]2)CC1 | 2
O=C(c1nn([C@@H]2CCCN(CCN3CCOCC3)C2)c2c1CS(=O)(=O)c1c(F)cccc1-2)N1CCOCC1 | 15
C[C@H](Nc1ncnc2ccc(Cl)nc12)c1nc2c(F)ccc(Cl)c2c(=O)n1N1CCNCC1 | 3

The molecules below were run against PIK3CG (human) (UniProt P48736) (assay: Enzyme Assay). Conditions: not given.

SMILES | IC50 [nM]
CCN1CCN(c2cccc3c2CCN3C(=O)Cc2nc(N3CCOCC3)cc(=O)[nH]2)CC1 | 10000
C[C@H](Nc1ncnc2ccc(Cl)nc12)c1nc2c(F)ccc(Cl)c2c(=O)n1N1CCNCC1 | 3100

What follows are molecules tested against PIK3CB (Human) (UniProt P42338) (assay: Cell-Based Assay). Conditions: mda-468.

SMILES | IC50 [nM]
C[C@H](Nc1ncnc(N)c1C#N)c1nc2ccc(F)cc2nc1-c1ccccn1 | > 10000
C[C@H](Nc1ncnc(N)c1C#N)c1cc2ccc(F)cc2nc1-c1ccccn1 | 1950
C[C@H](Nc1ncnc(N)c1C#N)c1nc2cccc(C#N)c2nc1-c1ccccc1S(C)(=O)=O | > 10000
C[C@H](Nc1ncnc(N)c1C#N)c1cc2ccc(F)cc2nc1-c1ccccc1S(C)(=O)=O | > 10000
C[C@H](Nc1ncnc(N)c1C#N)c1cc2cccc(F)c2nc1-c1ccccc1S(C)(=O)=O | 5970
C[C@H](Nc1ncnc(N)c1C#N)c1cc2ccc(F)cc2nc1-c1cccc(F)c1 | 3800
C[C@H](Nc1ncnc(N)c1C#N)c1nc2cccc(Cl)c2nc1-c1ccccc1S(C)(=O)=O | > 10000

Same assay, conditions: mda-mb-468

SMILES | IC50 [nM]
C[C@H](Nc1ncnc(N)c1C#N)c1nc2cccc(Cl)c2nc1-c1ccccc1S(C)(=O)=O | > 10000

What follows are molecules tested against MAPK14 (UniProt Q16539) (assay: Inhibition of MAPK Kinase Activity). Conditions: not given.

SMILES | IC50 [nM]
OCCCCNc1cncc(-c2cncc(Nc3cccc(Cl)c3)n2)c1 | > 10000
Clc1cccc(Nc2cncc(-c3cncc(NCCCn4cncn4)c3)n2)c1 | > 10000
OCCCNc1cncc(-c2cncc(Nc3cccc(Cl)c3)n2)c1 | > 10000
CN(C)CCNc1cncc(-c2cncc(Nc3cccc(Cl)c3)n2)c1 | > 10000
N[C@H](COc1cncc(-c2cc3cn[nH]c3cn2)c1)Cc1c[nH]c2ccccc12 | 750
Clc1cccc(Nc2cncc(-c3cncc(NCCCc4cccnc4)c3)n2)c1 | > 10000
N[C@H](COc1cncc(-c2ccc3[nH]ncc3c2)c1)Cc1c[nH]c2ccccc12 | 12200
Clc1cccc(Nc2cncc(-c3cncc(NCCCn4cccn4)c3)n2)c1 | > 10000

What follows are molecules tested against EGFR (UniProt P00533) (assay: not given). Conditions: not given.
EGFR, sequence (P00533 whole entry, looked up): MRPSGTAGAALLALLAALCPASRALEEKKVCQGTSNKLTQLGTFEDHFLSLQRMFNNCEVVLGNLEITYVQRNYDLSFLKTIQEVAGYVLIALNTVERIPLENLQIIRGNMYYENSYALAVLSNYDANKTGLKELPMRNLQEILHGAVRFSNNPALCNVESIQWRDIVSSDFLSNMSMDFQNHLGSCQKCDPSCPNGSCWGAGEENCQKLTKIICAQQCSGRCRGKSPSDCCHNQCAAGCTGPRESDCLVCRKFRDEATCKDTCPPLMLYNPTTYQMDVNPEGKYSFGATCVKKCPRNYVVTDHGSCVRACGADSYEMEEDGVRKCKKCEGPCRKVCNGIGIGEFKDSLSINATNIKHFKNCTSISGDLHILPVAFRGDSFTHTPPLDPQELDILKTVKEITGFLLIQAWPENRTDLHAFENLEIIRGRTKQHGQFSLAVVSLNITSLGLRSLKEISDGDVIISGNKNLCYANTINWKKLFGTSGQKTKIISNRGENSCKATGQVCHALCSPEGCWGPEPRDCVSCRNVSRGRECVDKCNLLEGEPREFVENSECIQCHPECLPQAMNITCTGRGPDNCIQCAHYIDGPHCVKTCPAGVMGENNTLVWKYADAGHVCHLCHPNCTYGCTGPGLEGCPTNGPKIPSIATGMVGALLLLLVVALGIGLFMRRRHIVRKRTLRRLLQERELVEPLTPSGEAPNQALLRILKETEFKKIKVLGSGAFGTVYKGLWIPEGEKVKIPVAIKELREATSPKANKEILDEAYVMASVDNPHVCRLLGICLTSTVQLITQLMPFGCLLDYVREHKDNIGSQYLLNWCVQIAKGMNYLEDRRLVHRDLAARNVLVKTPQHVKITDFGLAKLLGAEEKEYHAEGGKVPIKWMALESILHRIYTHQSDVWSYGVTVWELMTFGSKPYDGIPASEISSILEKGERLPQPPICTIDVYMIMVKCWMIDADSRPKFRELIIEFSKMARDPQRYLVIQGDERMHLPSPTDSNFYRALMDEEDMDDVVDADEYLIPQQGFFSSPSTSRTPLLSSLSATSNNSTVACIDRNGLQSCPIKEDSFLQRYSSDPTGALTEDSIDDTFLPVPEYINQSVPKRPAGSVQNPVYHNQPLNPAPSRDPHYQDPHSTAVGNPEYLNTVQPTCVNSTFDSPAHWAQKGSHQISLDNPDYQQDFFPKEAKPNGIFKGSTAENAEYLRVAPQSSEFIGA

SMILES | inhibition
NCCc1cc(O)c(O)c(SC[C@H](NC(=O)CC[C@H](N)C(=O)O)C(=O)NCC(=O)O)c1 | 1
C[C@@](Cc1cc(O)c(O)c(SC[C@H](NC(=O)CC[C@H](N)C(=O)O)C(=O)NCC(=O)O)c1)(NC(=O)CCN)C(=O)O | 5.2
NCCC(=O)N[C@@H](Cc1cc(O)c(O)c(SC[C@H](NC(=O)CC[C@H](N)C(=O)O)C(=O)NCC(=O)O)c1)C(=O)O | 2.2
N[C@@H](CSc1cc(C[C@H](N)C(=O)O)cc(O)c1O)C(=O)O | 2.9
N[C@@H](CCC(=O)N[C@@H](CSc1cc(C[C@H](N)C(=O)O)cc(O)c1O)C(=O)NCC(=O)O)C(=O)O | 4.4
NCCC(=O)N[C@H](Cc1cc(O)c(O)c(SC[C@H](NC(=O)CC[C@H](N)C(=O)O)C(=O)NCC(=O)O)c1)C(=O)O | 8.2
NCCC(=O)NCCc1cc(O)c(O)c(SC[C@H](NC(=O)CC[C@H](N)C(=O)O)C(=O)NCC(=O)O)c1 | 4.9

The molecules below were run against EGFR (human) (UniProt P00533) (assay: not given). Conditions: not given.
EGFR (human), sequence (P00533 whole entry, looked up): as above

SMILES | IC50 [nM]
CCN(CC)CCNC(=O)/C(=C1/C(=O)Nc2ccccc21)c1[nH]c(C)cc1C | > 100000
CCN(CC)Cc1cc(NC(=O)/C(=C2/C(=O)Nc3ccccc32)c2[nH]c(C)cc2C)ccc1O | > 100000
Cc1cc(C)c(/C(C(=O)Nc2cccc(F)c2)=C2\C(=O)Nc3ccccc32)[nH]1 | > 100000
O=C(O)/C(=C1/C(=O)Nc2ccccc21)c1ccccc1 | > 100000
Cc1cc(C)c(/C(C(=O)Nc2ccccc2Cl)=C2\C(=O)Nc3ccccc32)[nH]1 | > 100000
Cc1cc(C)c(/C(C(=O)Nc2cccc(N(C)C)c2)=C2\C(=O)Nc3ccccc32)[nH]1 | > 100000
Cc1cc(C)c(/C(C(=O)O)=C2\C(=O)Nc3ccccc32)[nH]1 | > 100000
Cc1cc(C)c(/C(C(=O)Nc2ccc(F)c(Cl)c2)=C2\C(=O)Nc3ccccc32)[nH]1 | > 100000

Biological target: EGFR (UniProt P00533)
Assay: not given
Conditions: not given
Remark: another data set of the same source

SMILES | IC50 [nM]
C#Cc1cccc(Nc2ncnc3cccc(CN4CC[C@@H](N)[C@H](CO)C4)c23)c1 | 1 to 5000
C#Cc1cccc(Nc2ncnc3cccc(CN4CC[C@@H](N)[C@H](O)C4)c23)c1 | 1 to 5000
N[C@@H]1CCN(Cc2cccc3ncnc(Nc4ccc5c(cnn5Cc5cccc(F)c5)c4)c23)C[C@H]1O | 1 to 5000
N[C@@H]1CCN(Cc2cccc3ncnc(Nc4cccc(Cl)c4)c23)C[C@H]1O | 1 to 5000
CNC(=O)[C@@H]1CN(Cc2cccc3ncnc(Nc4cccc(OC)c4)c23)CC[C@H]1N | 1 to 5000
NC1CCN(Cc2cccc3ncnc(Nc4ccc(OCc5cccc(F)c5)c(Cl)c4)c23)CC1 | 1 to 5000
COc1cccc(Nc2ncnc3cccc(CN4CC[C@@H](N)[C@H](O)C4)c23)c1 | 1 to 5000
COc1cccc(Nc2ncnc3cccc(CN4CCC(N)CC4)c23)c1 | 1 to 5000

Biological target: EGFR (human) (UniProt P00533)
Assay: not given
Conditions: not given
Remark: another data set of the same source

SMILES | IC50 [nM]
N#Cc1ccc(NC(=O)c2sc3ncnc4c3c2NC(=O)N4c2ccc(F)c(Cl)c2)cn1 | 116
O=C(Nc1ccc(CNC[C@@H]2CCCO2)cc1)c1sc2ncnc3c2c1NC(=O)N3c1ccc(F)c(Cl)c1 | 44
O=C(Nc1ccc(CN2CCCCC2)cc1)c1sc2ncnc3c2c1NC(=O)N3c1ccc(Cc2ccccc2)cc1 | 110
O=C(Nc1ccc(CN2CCOCC2)cc1)c1sc2ncnc3c2c1NC(=O)N3c1ccc(F)cc1Cl | 23
CC(C)(C)OC(=O)N1CCC(Cc2ccc(NC(=O)c3sc4ncnc5c4c3NC(=O)N5c3ccc4c(ccn4Cc4cccc(F)c4)c3)cc2)CC1 | 168
CC(C)(C)OC(=O)NCCCNC(=O)c1sc2ncnc3c2c1NC(=O)N3c1ccc2c(ccn2Cc2cccc(F)c2)c1 | 346
C[C@@H]1CN(Cc2ccc(NC(=O)c3sc4ncnc5c4c3NC(=O)N5c3ccc(Oc4ccccc4)cc3)cc2)C[C@H](C)O1 | 31
O=C(O)c1sc2ncnc3c2c1NC(=O)N3c1ccc(F)c(Cl)c1 | 1700

Biological target: EGFR (human) (UniProt P00533)
Assay: not given
Conditions: not given
Remark: another data set of the same source

SMILES | IC50 [nM]
COc1cccc(Nc2ncnc3sc4c(c23)CCCC4)c1 | 34
FC(F)(F)c1cccc(Nc2ncnc3sc4c(c23)CCCC4)c1 | 35.5
Brc1ccc(Nc2ncnc3sc4c(c23)CCCC4)cc1 | 50.3
Oc1ccc(Nc2ncnc3sc4c(c23)CCCC4)cc1 | 27.4
O=[N+]([O-])c1cccc(Nc2ncnc3sc4c(c23)CCCC4)c1 | 2.59
Oc1cccc(Nc2ncnc3sc4c(c23)CCCC4)c1 | 7.89
Clc1cccc(Nc2ncnc3sc4c(c23)CCCC4)c1 | 1.97
c1ccc(Nc2ncnc3sc4c(c23)CCCC4)cc1 | 10.5

The molecules below were run against EGFR (human) (UniProt P00533) (assay: not given). Conditions: a431.

SMILES | IC50 [nM]
C=CC(=O)N1CCC[C@H](C(=O)Nc2ccc3ncnc(Nc4ccc(OCc5ccccn5)c(Cl)c4)c3c2)C1 | 286
C=CC(=O)N1CCC(C(=O)Nc2ccc3ncnc(Nc4ccc(OCc5ccccn5)c(Cl)c4)c3c2)CC1 | 513
C=CC(=O)N1CCC[C@@H]1C(=O)Nc1ccc2ncnc(Nc3ccc(OCc4ccccn4)c(Cl)c3)c2c1 | 567
C=CC(=O)N1CC[C@H](C(=O)Nc2ccc3ncnc(Nc4ccc(OCc5ccccn5)c(Cl)c4)c3c2)C1 | 350
C=CC(=O)N1CC(C(=O)Nc2ccc3ncnc(Nc4ccc(OCc5ccccn5)c(Cl)c4)c3c2)C1 | 1400
C=CC(=O)N1CCC[C@H]1C(=O)Nc1ccc2ncnc(Nc3ccc(OCc4ccccn4)c(Cl)c3)c2c1 | 32
C=CC(=O)N1CCCC[C@H]1C(=O)Nc1ccc2ncnc(Nc3ccc(OCc4ccccn4)c(Cl)c3)c2c1 | 105
C=CC(=O)N1CC[C@H]1C(=O)Nc1ccc2ncnc(Nc3ccc(OCc4ccccn4)c(Cl)c3)c2c1 | 218

Biological target: EGFR (human) (UniProt P00533)
Assay: not given
Conditions: not given
Remark: another data set of the same source

SMILES | IC50 [nM]
COc1cc(-c2nc(N3CCCC3)sc2-c2ccnc(Nc3ccc(OCCN4CCCC4)c(F)c3)n2)ccc1Cl | 100 to 1000
COCCNc1nc(-c2cccc(OC)c2)c(-c2ccnc(Nc3ccc(N4CCOCC4)c(Cl)c3)n2)s1 | < 100
CCNc1nc(-c2cccc(Cl)c2)c(-c2ccnc(Nc3ccc(OCCN(C)C)c(Cl)c3)n2)s1 | < 100
CCNc1nc(-c2cccc(O)c2)c(-c2ccnc(Nc3ccc(OCCN4CCCC4)c(Cl)c3)n2)s1 | < 100
CCNc1nc(-c2cccc(OC)c2)c(-c2ccnc(Nc3ccc(OC4CCN(CCS(C)(=O)=O)CC4)c(F)c3)n2)s1 | 100 to 1000
Fc1cc(Nc2nccc(-c3sc(N4CCCC4)nc3-c3cccc(Cl)c3)n2)ccc1OCCN1CCCC1 | 100 to 1000
CCNc1nc(-c2cccc(OC)c2)c(-c2ccnc(Nc3ccc(OCCN4CCCC4)c(F)c3)n2)s1 | < 100
CCNc1nc(-c2cccc(OC)c2)c(-c2ccnc(Nc3ccc(OCCN(C)C)c(C)c3)n2)s1 | < 100
